Article PMC12138593, “Synthesis, Crystal Design and Anticancer Potential of Novel Cu(II), Ni(II), and Pd(II) Complexes with Carbazate Ligand” (ACS Omega, 2025)

Assays:
[1] = tested on: MCF-7; assay: MTT cytotoxicity assay, MCF-7 breast cancer cells; type: cell-based, human; details: IC50 ± SD
Procedure: (§1) Human cell lines A549 (lung cancer, ATCC No. CCL-185), MRC-5 (nontumoral lung, ATCC No. CCL-171), MCF-7 (breast cancer, ATCC No. HTB-22), and A2780cis (cisplatin-resistant ovarian cancer, ECACC No. 93112517) were used to evaluate the cytotoxic activity of the metal complexes. The A549 and MRC-5 cell lines were cultured in DMEM (Dulbecco’s Modified Eagle’s Medium), while the MCF-7 and A2780cis cell lines were maintained in RPMI-1640 (Roswell Park Memorial Institute) medium. Both media were supplemented with 10% fetal bovine serum (FBS), penicillin (100 U/mL), streptomycin ([…]), and L-glutamine (2 mM). The cells were grown in monolayers using disposable 25 cm^2 flasks and incubated at 37 °C in a 5% CO2 atmosphere.
(§2) The cytotoxicity of the compounds was determined using the MTT colorimetric assay (3-(4,5-dimethylthiazol-2-yl)-2,5-diphenyl tetrazolium bromide), as described by Mosmann. The cells were trypsinized for counting and concentration adjustment and then seeded in 96-well plates (1.5 × 10^4 cells/well). The plates were incubated at 37 °C in a 5% CO2 atmosphere for 24 h to allow cell adhesion. […] Absorbance was measured at 570 nm using a Varioskan LUX Multimode Microplate Reader (VL000D0). […]

[2] = tested on: A549; assay: MTT cytotoxicity assay, A549 lung cancer cells; type: cell-based, human; details: IC50 ± SD
Procedure: as §1, §2

[3] = tested on: A2780cis; assay: MTT cytotoxicity assay, A2780cis cisplatin-resistant ovarian cancer cells; type: cell-based, human; details: 48 h, IC50 ± SD
Procedure: as §1, §2

[4] = tested on: MRC-5; assay: MTT cytotoxicity assay, MRC-5 noncancerous lung cells; type: cell-based, human; details: IC50 ± SD
Procedure: as §1, §2

[5] = Molar conductance in DMSO over 48 h; type: physicochemical; details: 10^-3 M in DMSO, room temperature
Procedure: DMSO solutions (10^–3 M) of the Hapmc and metal(II) complexes were subjected to molar conductance measurements at room temperature over 48 h, and the observed values are presented in Table S2.
The solvents and reagents were purchased from commercial sources and used without purification. The FT-IR spectra of the compounds were obtained from KBr pellets, using an FT-IR Varian 640 spectrometer in the range of 4000–400 cm^–1. Electrospray ionization mass spectrometry analysis (ESI-MS) was performed on an AB Sciex Triple TOF 5600+ mass spectrometer in positive mode, with a voltage of 5500 V and source temperature of 200 °C. ^1H nuclear magnetic resonance spectra were collected on a Varian Mercury Plus (600 MHz), with TMS as internal reference and DMSO-d 6 as solvent. Elemental analysis of CHN was performed with a PerkinElmer/Series II 2400 analyzer. Electronic spectra were obtained using a UV–vis–NIR Varian Cary 5000 spectrophotometer using 20 μM or 1 mM solutions prepared in methanol or DMF. The molar conductance of a 10^–3 M solution of ligand and metal complexes in DMSO was measured at room temperature using a Quimis Q405 M conduct meter.

| Structure (SMILES) | IC50 ([1]; 48 h) [µM] | IC50 ([2]; 48 h) [µM] | IC50 [3] [µM] | IC50 ([4]; 48 h) [µM] | IC50 ([1]; Homo sapiens, MCF7, 48 h) [µM] | IC50 ([2]; Homo sapiens, A549, 48 h) [µM] | IC50 ([3]; Homo sapiens, A2780cis) [µM] | IC50 ([4]; Homo sapiens, MRC5, 48 h) [µM] | Molar conductivity, 0 hours ([5]; 0 hours) | Molar conductivity, 24 hours ([5]; 24 hours) | Molar conductivity, 48 hours ([5]; 48 hours) |
| --- | --- | --- | --- | --- | --- | --- | --- | --- | --- | --- | --- |
| N.N.[Cl][Pt][Cl] [Cisplatin, reference compound] | 14 | 11.5 | 37 | 29.1 |  |  |  |  |  |  |  |
| COC(=O)N/N=C(\C)c1ccccn1 [Hapmc, 2-acetylpyridine-methylcarbazate] |  |  |  |  | > 100 | > 100 | > 100 | > 100 | 1.90 Ω -1.cm2.mol-1 | 2.37 Ω -1.cm2.mol-1 | 2.48 Ω -1.cm2.mol-1 |
